From ChEMBL document CHEMBL1201862, “PubChem BioAssay data set” (2004)
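Exposure lasted 48 hours, with cells grown in 96-well plates and compounds tested at five concentrations. At the GI50, growth is halved.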 Active and inactive are the calls of the source. No stated cut-off is given here; in the data, active = GI50 up to about 1.1 µM and inactive = higher.

Assays:
Experiment in all cases: NCI anticancer screen, dose series, 48 h
OVCAR-5 = test system: OVCAR-5
SF-539 = test system: SF-539
SK-MEL-5 = test system: SK-MEL-5
SN12C = test system: SN12C
MCF7 = test system: MCF7
OVCAR-3 = test system: OVCAR-3
HCT-116 = test system: HCT-116
M14 = test system: M14
UACC-257 = test system: UACC-257
TK-10 = test system: TK-10
SW-620 = test system: SW-620
LOX IMVI = test system: LOX IMVI
786-0 = test system: 786-0
HCC 2998 = test system: HCC 2998
HT-29 = test system: HT-29
U-251 = test system: U-251
RPMI-8226 = test system: RPMI-8226
HCT-15 = test system: HCT-15
M19-MEL = test system: M19-MEL
KM12 = test system: KM12

SMILES	GI50 (OVCAR-5)	GI50 (SF-539)	GI50 (SK-MEL-5)	GI50 (SN12C)	GI50 (MCF7)	GI50 (OVCAR-3)	GI50 (HCT-116)	GI50 (M14)	GI50 (UACC-257)	GI50 (TK-10)	GI50 (SW-620)	GI50 (LOX IMVI)	GI50 (786-0)	GI50 (HCC 2998)	GI50 (HT-29)	GI50 (U-251)	GI50 (RPMI-8226)	GI50 (HCT-15) [µM]	GI50 (M19-MEL)	GI50 (KM12)
COc1ccc(NC(=O)CC(=O)n2nc(-c3ccccc3)c(/N=N/c3ccccc3C)c2-c2ccccc2)cc1	> 100 µM (inactive)	15.1 µM (inactive)	40.2 µM (inactive)	53.6 µM (inactive)	35.3 µM (inactive)	17.3 µM (inactive)	20.5 µM (inactive)	40.9 µM (inactive)	64.1 µM (inactive)	24.7 µM (inactive)	35.4 µM (inactive)	41 µM (inactive)	18.5 µM (inactive)	> 78.7 µM (inactive)	44.9 µM (inactive)	16.4 µM (inactive)	> 58.5 µM (inactive)	35.5	51.8 µM (inactive)	53.3 µM (inactive)
O=C(/C=C/c1ccc(Cl)c(Cl)c1)c1ccccc1Cl	16.8 µM (inactive)	3.63 µM (inactive)	13.7 µM (inactive)	16.6 µM (inactive)	–	9.27 µM (inactive)	4.71 µM (inactive)	6.24 µM (inactive)	14.3 µM (inactive)	21.6 µM (inactive)	4.91 µM (inactive)	13.2 µM (inactive)	5.32 µM (inactive)	10.5 µM (inactive)	6.07 µM (inactive)	5.64 µM (inactive)	8.49 µM (inactive)	5.45	7.18 µM (inactive)	8.13 µM (inactive)
CCOC(=O)N1C/C(=C\c2ccccc2)C(=O)/C(=C/c2ccccc2)C1	6.04 µM (inactive)	5.08 µM (inactive)	2.97 µM (inactive)	2.17 µM (inactive)	0.955 µM (active)	4.23 µM (inactive)	1.14 µM (inactive)	2.77 µM (inactive)	4.46 µM (inactive)	8.34 µM (inactive)	1.4 µM (inactive)	1.7 µM (inactive)	2.9 µM (inactive)	1.94 µM (inactive)	1.49 µM (inactive)	1.45 µM (inactive)	0.182 µM (active)	2.32	1.57 µM (inactive)	2.03 µM (inactive)
